Results published in patent publication US10265303B2, “Hyperphenylalaninemia and treatments thereof” (BERGEN TEKNOLOGIOVERFØRING AS, priority 2015, dated 2019).
Positions count from the first letter of the chain named.

Legend:
I65T-PAH = target: T1, I65T-PAH (Homo sapiens, UniProt P00439, I65T); assay: PAH protein level and activity in HEK293 EBNA cells transiently expressing PKU mutant I65T; type: cell-based; conditions: 24 h
T1 construct: expressed in transfected cells; host or cells: HEK293 EBNA, transient, pcDNA3-PAH
T1 sequence (P00439 1-452 I65T): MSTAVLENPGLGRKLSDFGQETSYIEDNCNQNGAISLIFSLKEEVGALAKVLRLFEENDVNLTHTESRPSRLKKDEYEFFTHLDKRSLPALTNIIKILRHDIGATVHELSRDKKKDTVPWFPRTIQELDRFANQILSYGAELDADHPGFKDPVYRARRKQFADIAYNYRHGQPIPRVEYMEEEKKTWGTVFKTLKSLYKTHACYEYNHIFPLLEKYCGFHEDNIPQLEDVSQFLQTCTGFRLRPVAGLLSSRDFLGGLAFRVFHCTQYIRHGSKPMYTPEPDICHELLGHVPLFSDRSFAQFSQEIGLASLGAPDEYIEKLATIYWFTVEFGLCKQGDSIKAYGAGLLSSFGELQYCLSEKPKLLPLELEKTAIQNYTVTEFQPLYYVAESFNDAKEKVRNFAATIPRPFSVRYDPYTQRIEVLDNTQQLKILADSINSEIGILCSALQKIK
Protocol: Cell lysates were prepared as indicated above.

[1] = target: tyrosine hydroxylase (TH) (Homo sapiens, UniProt P07101); conditions: 68.9 μM, respect to 2% DMSO controls
Sequence of tyrosine hydroxylase (TH) (P07101 whole entry): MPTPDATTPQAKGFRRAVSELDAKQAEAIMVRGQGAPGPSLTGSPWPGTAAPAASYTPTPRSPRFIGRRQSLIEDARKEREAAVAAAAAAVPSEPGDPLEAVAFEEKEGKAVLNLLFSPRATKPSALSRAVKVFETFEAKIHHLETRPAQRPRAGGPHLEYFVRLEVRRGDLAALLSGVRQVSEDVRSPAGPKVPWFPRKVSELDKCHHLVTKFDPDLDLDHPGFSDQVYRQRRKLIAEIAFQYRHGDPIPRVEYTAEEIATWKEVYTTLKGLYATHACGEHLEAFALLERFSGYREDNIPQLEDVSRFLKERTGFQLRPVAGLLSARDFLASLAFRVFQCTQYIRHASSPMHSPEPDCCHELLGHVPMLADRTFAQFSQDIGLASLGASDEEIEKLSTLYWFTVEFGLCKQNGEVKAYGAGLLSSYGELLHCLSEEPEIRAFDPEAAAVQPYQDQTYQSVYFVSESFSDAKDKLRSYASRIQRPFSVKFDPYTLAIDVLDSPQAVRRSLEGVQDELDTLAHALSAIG

R252W-PAH = target: T2, R252W-PAH (Homo sapiens, UniProt P00439, R252W); assay: PAH protein level and activity in HEK293 EBNA cells transiently expressing PKU mutant R252W; type: cell-based
T2 construct: expressed in transfected cells; host or cells: HEK293 EBNA, transient, pcDNA3-PAH
T2 sequence (P00439 1-452 R252W): T1 sequence (P00439 1-452 I65T) with T65I, R252W
Protocol: A similar assay was used to measure PAH activity in cells lysates using 1 mM L-Phe and 200 μM BH4 with 10 min reactions and about 20-90 μg of total protein. Free amino acids and contaminants of low molecular weight were previously removed from the extracts using Zebra Desalt Spin columns (Pierce Biotechnology).
For transient expression of WT and mutant PAH, HEK293 EBNA (Epstein-Barr virus) cells, with low endogenous PAH expression, were grown as above. Cells were grown for 19 h, when they were transfected transiently transfected with […] of pcDNA3-PAH vector (WT or mutant PAH constructs R261Q, R252W, I65T and R68S) using the Lipofectamine system (Life Technologies™) as described by the manufacturer. Compound 53, with and without BH2 (200 μM) was added after 5 h of transfection at 200 μM concentration in 1% DMSO, and further incubated for 24 h, at which time the cells were harvested and stored at −80° C. In all cases a parallel negative control with only 1% DMSO was included. Cell lysates were prepared as indicated above.
Western blot analyses were performed on either cell extracts from permanently expressing or transiently transfected HEK293 cell lysates after SDS-PAGE (10% acrylamide) with 5-10 μg total protein in each lane. […] Neomycin phosphotransferase II was used as a marker of the plasmid transfection efficiency, and GAPDH was used as loading controls. […]

[2] = target: tryptophan hydroxylase 2 (TPH2) (Homo sapiens, UniProt Q8IWU9); conditions: 68.9 μM, respect to 2% DMSO controls
Sequence of tryptophan hydroxylase 2 (TPH2) (Q8IWU9 whole entry, species assumed): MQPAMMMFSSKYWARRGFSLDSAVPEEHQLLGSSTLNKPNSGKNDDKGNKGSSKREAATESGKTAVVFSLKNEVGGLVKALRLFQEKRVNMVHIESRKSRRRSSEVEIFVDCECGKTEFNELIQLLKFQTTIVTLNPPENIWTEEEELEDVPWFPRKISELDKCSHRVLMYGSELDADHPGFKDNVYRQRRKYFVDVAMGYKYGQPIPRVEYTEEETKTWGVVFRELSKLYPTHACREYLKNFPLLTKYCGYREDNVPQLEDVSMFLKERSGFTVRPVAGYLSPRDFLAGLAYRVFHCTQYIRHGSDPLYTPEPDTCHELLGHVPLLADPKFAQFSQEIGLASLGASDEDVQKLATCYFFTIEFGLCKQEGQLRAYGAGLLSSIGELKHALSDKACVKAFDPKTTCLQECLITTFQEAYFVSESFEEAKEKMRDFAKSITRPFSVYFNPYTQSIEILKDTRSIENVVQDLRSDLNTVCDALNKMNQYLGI

protein and activity, mutant I65T, Compound 53 and BH2 together (I65T-PAH; 200 μM each): trends for additive effects
PAH activity, mutant I65T (I65T-PAH; 200 μM, 1% DMSO): greatly increased
hPAH protein level, mutant I65T (I65T-PAH; 200 μM, 1% DMSO): greatly increased
effect on TH activity [1]: did not have large effect
effect on mutant R252W (protein, activity) (R252W-PAH; 200 μM alone, 24 h, 1% DMSO): neither the compound or BH4 affected
effect on TPH2 activity [2]: did not have large effect
Structure (SMILES): COc1cc(Cc2cnc(N)nc2N)cc(OC)c1OC [c53, trimethoprim]
protein content, mutant R252W, compound and cofactor analogue together (R252W-PAH; Compound 53 200 μM plus BH2 200 μM, 24 h (FIG. 2D)): a little stimulation of the protein content
